From ChEMBL document CHEMBL3132860 (Medchemcomm, 2013)

Columns and labels:
Estrogen receptor beta [1] = target: T1, Estrogen receptor beta (Homo sapiens, UniProt Q92731)
Estrogen receptor = target: T2, Estrogen receptor (Homo sapiens, UniProt P03372)
T2 sequence (P03372 whole entry): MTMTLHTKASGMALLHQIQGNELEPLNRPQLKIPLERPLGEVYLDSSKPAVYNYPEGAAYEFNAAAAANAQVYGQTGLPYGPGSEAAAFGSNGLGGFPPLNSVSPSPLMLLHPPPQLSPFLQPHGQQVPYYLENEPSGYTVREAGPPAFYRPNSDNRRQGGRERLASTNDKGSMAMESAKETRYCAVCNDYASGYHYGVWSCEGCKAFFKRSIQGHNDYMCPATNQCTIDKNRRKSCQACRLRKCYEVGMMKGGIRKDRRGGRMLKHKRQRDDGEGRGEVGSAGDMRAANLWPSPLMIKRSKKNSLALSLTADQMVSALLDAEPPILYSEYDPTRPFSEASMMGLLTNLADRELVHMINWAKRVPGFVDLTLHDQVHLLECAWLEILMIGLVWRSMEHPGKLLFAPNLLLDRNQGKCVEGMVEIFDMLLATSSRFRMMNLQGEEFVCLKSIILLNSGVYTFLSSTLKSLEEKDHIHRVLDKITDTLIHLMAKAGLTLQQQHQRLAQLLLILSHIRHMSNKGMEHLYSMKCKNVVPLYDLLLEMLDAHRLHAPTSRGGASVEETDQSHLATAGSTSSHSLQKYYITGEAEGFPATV
Description: Agonist activity at ER-alpha (unknown origin) transfected in HEK293T cells after 24 hrs by Steady-Glo luciferase reporter gene assay

Estrogen receptor beta [2] = target: T1, Estrogen receptor beta; test: Agonist activity at ER-beta (unknown origin) transfected in HEK293T cells after 24 hrs by Steady-Glo luciferase reporter gene assay relative to estradiol; type: cell-based; conditions: HEK-293T
Estrogen receptor beta [3] = target: T1, Estrogen receptor beta; test: Agonist activity at human ER-beta transfected in human 293 cells assessed as ALP reporter protein expression after 72 hrs by chemiluminescence assay; type: cell-based

T1 sequence (Q92731 whole entry): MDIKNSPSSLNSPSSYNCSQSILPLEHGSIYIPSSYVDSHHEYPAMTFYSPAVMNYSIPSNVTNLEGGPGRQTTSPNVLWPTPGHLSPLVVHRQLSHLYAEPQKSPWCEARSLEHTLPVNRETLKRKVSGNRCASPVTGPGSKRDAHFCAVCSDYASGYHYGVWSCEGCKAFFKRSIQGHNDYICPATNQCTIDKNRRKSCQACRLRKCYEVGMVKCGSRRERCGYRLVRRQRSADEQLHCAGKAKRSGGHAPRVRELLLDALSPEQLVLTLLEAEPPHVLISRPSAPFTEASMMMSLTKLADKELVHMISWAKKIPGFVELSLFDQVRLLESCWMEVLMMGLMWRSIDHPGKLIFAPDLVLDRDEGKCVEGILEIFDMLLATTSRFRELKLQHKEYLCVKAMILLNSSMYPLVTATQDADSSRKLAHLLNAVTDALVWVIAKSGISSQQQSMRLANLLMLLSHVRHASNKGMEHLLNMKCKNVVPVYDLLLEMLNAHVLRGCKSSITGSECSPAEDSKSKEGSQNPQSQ

| Structure (SMILES) | EC50 (Estrogen receptor beta [1]) [nM] | EC50 (Estrogen receptor) [nM] | Efficacy (Estrogen receptor beta [2]) [%] | EC50 (Estrogen receptor beta [3]) [nM] |
| --- | --- | --- | --- | --- |
| C[C@]12CCC(c3ccc(O)cc3)C[C@H]1CC[C@@H]2O (some centres undefined) | 0.398 | 31.6 | 127 | – |
| C[C@]12CC[C@H](c3ccc(O)cc3)C[C@H]1C[C@H](O)[C@H]2O | 20 | 10000 | 108 | – |
| C[C@]12CC[C@@H]3c4ccc(O)cc4CC[C@H]3[C@@H]1C[C@@H](O)[C@@H]2O [ESTRIOL] | 0.126 | – | – | – |
| C[C@]12CC[C@@H]3c4ccc(O)cc4CC[C@H]3[C@@H]1C[C@H](O)[C@H]2O | – | – | – | 11 |
| C[C@]12CC[C@H](c3ccc(O)cc3)C[C@H]1CCC2=O | 251 | > 10000 | 148 | – |
| C[C@]12CC[C@@H](c3ccc(O)cc3)C[C@H]1CCC2=O | 126 | 7940 | 144 | – |
